Values quoted from earlier work as cited in US20210308030A1, “SYSTEM, METHODS AND KITS FOR DIAGNOSIS AND TREATMENT OF FEMALE PATTERN HAIR LOSS” (Follea International, priority 2020, published 2021).

What was measured:
[1] = test system: FPHL patients; settings: both 2% and 5% minoxidil

SMILES	water solubility	risk for adverse events [1]
O=c1c(-c2ccc(O)cc2)coc2cc(O)ccc12 [daidzein]	poor	
O=c1c(-c2ccc(O)cc2)coc2cc(O)cc(O)c12 [genistein]	poor	
Nc1cc(N2CCCCC2)nc(N)[n+]1[O-] [minoxidil]		low
